Marks after values point to notes of the source that are not given here.

For data set [1], the system named is human articular osteoarthritic (OA) chondrocytes. The experiment in a line: Proteoglycan synthesis (35S incorporation). The data set is classed as cell-based. As to conditions: 7 days. The text has this: Proteoglycan synthesis in human articular osteoarthritic (OA) chondrocytes is an n vitro model for chondrocyte activity. The effect of human mature BMP7 protein variants may also be evaluated on proteoglycan synthesis m human articular OA chondrocytes in vitro and compared to wild type human mature pro-BMP7. The proteoglycan synthesis may be measured using ^35S incorporation. Arthritic human knee cartilage is obtained from donors at surgery. The cartilage pieces may be finely chopped and chondrocytes may be isolated from the associated matrix by enzymatic digestions. The cartilage may be first digested with 1 mg/ml pronase in DMEM/PRF (phenol red free) media with 5% Fe supplemented calf serum (FCS) and 2% penicillin-streptomycin-antimycotic for 60 minutes followed by overnight digestion with 1 mg/ml collagenase II in DMEM/PRF media with 5% FCS) and 2% penicillin-streptomycin-antimycotic at 37° C. The cells may be washed with DMEM/F-12 media and then resuspended in DMEM/F-12 with 5% FCS and counted with a Coulter counter. The cells may be plated at a density of 30,000 cells/well in 96-well collagen coated CytoStar T plate in growth media containing DMEM, 5% FCS. ITS (insulin, transferin, selenium) and 1% penicillin-streptomycin-antimycotic. After 24 hours, the media may be replaced with 100 μl of growth media containing 10 μCi/ml (1 μCi/well) of ^35S and treated with wild type human pro-BMP7 or a human pro-BMP7 protein variants at various doses. Then the cells may be incubated for approximately 7 days at 37° C. with 5% CO2. At the end of the treatment period the media may be removed, replaced with phosphate buffered saline and ^35S incorporation is counted using a Wallac 1450 MicroBeta TriLux Liquid Scintillation Counter & Luminometer.

Data set [2] deals with MFc7 mouse renal myofibroblasts. Put plainly: Alkaline phosphatase stimulation in MFc7 cells. The data set is classed as cell-based. As to conditions: 1 μg/ml pro-BMP7, 1 μM ATRA, 48 hours. How it is done:
3T3-L1 fibroblasts and MFc7 mouse renal myofibroblasts may be grown essentially as described in Example 2 above. After 48 hours the cells may be washed with PBS prior to the addition of either DMEM/2% dialyzed FBS or OPTI-MEM/2% dialyzed FBS medium containing control vehicle, 1 μg/ml human proBMP7 protein, 1 μM ATRA or a combination of both human BMP7 protein (1 μg/ml) and ATRA (1 μM) may be added for 48 hours. After treatment the cells may be rinsed with PBS and stored at −80° C. for approximately 20 minutes. The cells may be thawed at 37° C. for 30 minutes and 100 μl of PNPP may be added to every well. The plate may be incubated at 37° C. for 1 hour. The absorbance at 405 nm may be read on a plate reader.

Data set [3] in a line: Thermal unfolding assay (circular dichroism). The data set is classed as physicochemical. As to conditions: CD at 208 nm; 10 mM citrate, 300 mM NaCl, pH 7.4. How it is done: The effect of temperature on the conformational stability of human BMP7 protein variants may be followed by circular dichroism (CD) on a Jasco J-810 instrument equipped with a thermoelectric sample compartment. Briefly stated, 0.2-1.0 mg/mL pro-BMP7 may be formulated in storage buffer (10 mM citrate, 300 mM NaCl, pH 7.4) and loaded into a 0.02 cm path-length CD cuvette. The sample may be heated from 20 to 80° C. at a linear rate of 1° C./minute and the resulting CD signal at 208 nm may be recorded every 0.2° C. using a 1 second signal response time. A non-linear fit to equation 1 may be performed by the program JMP (SAS Institute Inc, Cary, N.C.) to obtain the thermal unfolding mid-point (Tm).
[formula] where, Yu and Yf are fit and represent the Y-intercept of the pre- and post-transition baselines, respectively. Mu and Mf are fit and represent the slope of the pre- and post-transition baselines, respectively. Hm and S are fit and represent enthalpy and entropy, respectively. T is the measured temperature in Kelvin units.

The subject of data set [4] is DLD1 C5 tumor xenografts. Put plainly: DLD1 C5 mouse xenograft tumor model. As to conditions: F9 IP 0.04 mg/kg MWF for 3 weeks followed by 3 weeks irinotecan 20 mg/kg M and Th. The data set is classed as in vivo. The procedure: Female athymic nude mice age 6- to 7-weeks old are available commercially, including from Harlan Laboratories (Indianapolis, Ind.). The mice are allowed to acclimate for one week and fed ad libitum on a normal low fat (4.5%) diet, which may be continued for the duration of the study. Tumor cells are available for purchase from ATCC and may be cultured in cell culture media such as RPMI 1640 (Life Technologies) with L-glutamine, 25 mM HEPES supplemented with 10% FBS and 1 mM Na Pyruvate. Cells may be detached, washed with serum free medium and then resuspended at a final concentration of 50×10^6 cells/mL in serum free RPMI 1640. Tumor cells, approximately 5×106 may be injected subcutaneously in the rear flank of subject mice in a 1:1 mixture of serum free growth medium and Matrigel (Becton Dickinson, Bedford, Mass.). Tumor and body weight measurements may be performed twice weekly. Prior to treatment, mice can be randomized based on tumor size using a randomization algorithm. Treatments may be started when the average tumor volume reaches 100 mm3. […]
All test or control proteins are prepared in phosphate Buffered Saline (PBS) prior to dose. Tumor size may be determined by caliper measurements. […] Log volume data can be analyzed with two-way repeated measures ANOVA by time and treatment using SAS PROC MIXED software (SAS Institutes Inc, Cary, N.C.). […]

As to “Wild type human pro-BMP7: homodimers of wild type human mature BMP7 in a non-covalent complex with wild type human pro-domain [reference compound]”, the “Proteoglycan Synthesis (35S incorporation)” value in data set [1] (Treatment (ng) 0.1) was 679 ± 120 CPMs; in data set [1] (Treatment (ng) 0.4), 724 ± 120 CPMs; in data set [1] (Treatment (ng) 1.2), 679 ± 120 CPMs; in data set [1] (Treatment (ng) 3.7) it was 666 ± 130 CPMs; in data set [1] (Treatment (ng) 11), 723 ± 72 CPMs; in data set [1] (Treatment (ng) 33), 799 ± 65 CPMs. In addition, the “Proteoglycan Synthesis (35S incorporation)” value in data set [1] (Treatment (ng) 100) was 1500 ± 309 CPMs; in data set [1] (Treatment (ng) 300), 3325 ± 237^a CPMs. Moreover, the “fold change in alkaline phosphatase stimulation relative to control vehicle treated cells” value in data set [2] is given as 21 fold. In data set [3], the “thermal unfolding mid-point (Tm)” value was found to be 61 °C.

B1: Human mature BMP7 protein variant F9 (SEQ ID NO: 8): homodimer wherein each monomeric subunit has SEQ ID NO: 8 (Y65G/I86L/F93V/N110G/Y128W), disulfide linked (protein)
chain: STGSKQRSQNRSKTPKNQEALRMANVAENSSSDQRQACKKHELYVSFRDLGWQDWIIAPEGYAAGYCEGECAFPLNSYMNATNHALVQTLVHVINPETVPKPCCAPTQLGAISVLYFDDSSNVILKKWRNMVVRACGCH
modifications: homodimer, disulfide linked
As to B1, the tumor response result in data set [4] is “tumor regression”.
